In patent US9580604B2, “Pentafluorosulfanyl phthalocyanine derivatives and intermediates thereof” (UBE INDUSTRIES, LTD., priority 2012, dated 2017):

Legend:
[1] = UV/Vis spectra in methylene chloride; format: physicochemical; conditions: for coagulation inhibitory effect / suppression of coagulation: in solution, judged from UV/Vis spectrum; for coagulation inhibitory effect / suppression of coagulation / shift of the peak in the Q band: in words; for λ/nm, absorption peak, 1st peak / λ/nm, absorption peak, 2nd peak / λ/nm, absorption peak, 3rd peak / λ/nm, absorption peak, 4th peak / λ/nm, absorption peak, 5th peak / shift of the peak in the Q band: methylene chloride
Text: FIGS. 1 to 4 show the UV/Vis spectra of the inventive phthalocyanine derivatives obtained above in Examples 8 to 11 in methylene chloride.

[2] = fluorescence spectra in methylene chloride; format: physicochemical; conditions: for fluorescence quantum yield, tendency in words: methylene chloride
Text: FIGS. 6 to 9 show the fluorescence spectra of the inventive phthalocyanine derivatives obtained above in Examples 8 to 11 in methylene chloride.

[3] = solubility in an organic solvent (purification by column chromatography); conditions: result in words
[4] = 1.0 × 10^−4 M + Py, broken line
[5] = 1.0 × 10^−4 M, solid line (no pyridine)
[6] = CH2C12, solid line (no pyridine)
[7] = CH2C12—Py, broken line (in the presence of pyridine)

| Substance | coagulation inhibitory effect / suppression of coagulation [1] | λ/nm, absorption peak, 1st peak [1, 4] | λ/nm, absorption peak, 2nd peak [1, 4] | λ/nm, absorption peak, 3rd peak [1, 4] | λ/nm, absorption peak, 4th peak [1, 4] | λ/nm, absorption peak, 5th peak [1, 4] | λ/nm, absorption peak, 1st peak [1, 5] | λ/nm, absorption peak, 2nd peak [1, 5] | λ/nm, absorption peak, 3rd peak [1, 5] | λ/nm, absorption peak, 4th peak [1, 5] | λ/nm, absorption peak, 5th peak [1, 5] | Φf fluorescence quantum yield [2, 6] | λem (nm) [2, 6] | λem (nm) ([2]; CH2C12—Py, broken line) | Φf fluorescence quantum yield [2, 7] | solubility in an organic solvent [3] | shift of the peak in the Q band [1] | fluorescence quantum yield, tendency in words [2] |
| --- | --- | --- | --- | --- | --- | --- | --- | --- | --- | --- | --- | --- | --- | --- | --- | --- | --- | --- |
| tetrakis(pentafluorosulfanyl)zinc phthalocyanine [Example 8] | superior coagulation inhibitory effect | 333 nm | 363 nm | 607 nm | 639 nm | 671 nm | 334 nm | 365 nm | 607 nm | 637 nm | 672 nm | 0.55 | 676 nm | 676 nm | 0.74 | – | – | – |
| trifluoromethyl phthalocyanine [CF3Pc, reference compound] | – | 334 nm | 371 nm | 604 nm | 628 nm | 669 nm | 334 nm | – | – | 626 nm | 668 nm | 0.58 | 675 nm | 674 nm | 0.76 | too poorly soluble in an organic solvent to be purified by column chromatography | – | – |
| α-tetrakis(phenoxy)-β-tetrakis(pentafluorosulfanyl)zinc phthalocyanine [Example 10] | – | 328 nm | 384 nm | 624 nm | 694 nm | – | 326 nm | 384 nm | 624 nm | 694 nm | 733 nm | 0.26 | 738 nm | 704 nm | 0.34 | – | significant redshift | decrease in fluorescence quantum yield |
| α-tetrakis(thiophenoxy)-β-tetrakis(pentafluorosulfanyl)zinc phthalocyanine [Example 11] | – | 334 nm | – | 406 nm | 641 nm | 713 nm | 333 nm | – | 407 nm | 641 nm | 712 nm | 0.24 | 721 nm | 723 nm | 0.34 | – | significant redshift | decrease in fluorescence quantum yield |
| α-tetrakis(trifluoromethyl)-β-tetrakis(pentafluorosulfanyl)zinc phthalocyanine [Example 9] | superior in solubility and suppression of coagulation to the phthalocyanine obtained in Example 8 | 332 nm | 380 nm | 597 nm | 628 nm | 659 nm | 330 nm | 380 nm | 598 nm | 629 nm | 662 nm | 0.52 | 669 nm | 667 nm | 0.84 | – | – | – |
